The target in one series is rCYP2C8 (Homo sapiens, UniProt P10632). As to the kind of experiment: Compound 1 loss on incubation with rCYP enzymes. The class given is in vitro ADME. Conditions: 120 minutes of incubation.
The next series concerns the target T1, OAT1 (Homo sapiens, UniProt Q4U2R8).
T1 construct: expressed in transfected cells; host or cells: HEK293
T1 sequence (Q4U2R8 1-563): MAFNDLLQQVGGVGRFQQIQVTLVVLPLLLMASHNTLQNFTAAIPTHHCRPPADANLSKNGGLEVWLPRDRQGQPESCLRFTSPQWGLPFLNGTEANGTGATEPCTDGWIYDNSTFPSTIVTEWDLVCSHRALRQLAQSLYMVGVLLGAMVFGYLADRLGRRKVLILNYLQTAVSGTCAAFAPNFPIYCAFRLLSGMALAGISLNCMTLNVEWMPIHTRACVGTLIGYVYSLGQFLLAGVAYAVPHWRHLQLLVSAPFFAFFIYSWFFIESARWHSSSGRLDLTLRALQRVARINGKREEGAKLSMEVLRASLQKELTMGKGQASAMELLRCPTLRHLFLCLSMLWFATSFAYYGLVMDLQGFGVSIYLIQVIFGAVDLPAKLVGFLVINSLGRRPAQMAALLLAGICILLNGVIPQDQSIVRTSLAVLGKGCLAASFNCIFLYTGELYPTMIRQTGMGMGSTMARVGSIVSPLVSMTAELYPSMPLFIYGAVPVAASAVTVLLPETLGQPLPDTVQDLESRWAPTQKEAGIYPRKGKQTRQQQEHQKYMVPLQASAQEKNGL
As to the kind of experiment: Transporter inhibition, HEK293 cells. The class given is in vitro ADME.

A further series has as its target T2, MATE1 (Homo sapiens, UniProt Q96FL8).
T2 construct: expressed in transfected cells; host or cells: HEK293
Put plainly: Transporter inhibition, HEK293 cells. The class given is in vitro ADME.

For series [1] the following is noted: male Sprague-Dawley rats; cited from earlier work.

A value given as a limit tells only on which side of the number the result lay.

T2 sequence (Q96FL8 whole entry): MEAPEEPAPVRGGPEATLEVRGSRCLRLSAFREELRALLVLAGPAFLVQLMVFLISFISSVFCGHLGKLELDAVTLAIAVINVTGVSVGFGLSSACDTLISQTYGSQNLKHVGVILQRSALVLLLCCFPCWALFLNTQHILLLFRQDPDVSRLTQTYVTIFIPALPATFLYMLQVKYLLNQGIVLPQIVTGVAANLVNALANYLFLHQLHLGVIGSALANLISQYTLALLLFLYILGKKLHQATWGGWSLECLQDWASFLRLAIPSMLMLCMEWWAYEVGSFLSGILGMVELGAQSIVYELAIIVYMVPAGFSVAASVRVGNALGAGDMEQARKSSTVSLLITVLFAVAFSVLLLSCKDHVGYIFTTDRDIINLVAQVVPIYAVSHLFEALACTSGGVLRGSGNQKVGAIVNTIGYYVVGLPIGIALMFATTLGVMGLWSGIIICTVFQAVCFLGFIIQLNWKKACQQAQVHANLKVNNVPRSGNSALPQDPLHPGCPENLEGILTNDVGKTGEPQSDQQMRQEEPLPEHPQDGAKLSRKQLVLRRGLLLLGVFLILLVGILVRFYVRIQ
rCYP2C8, sequence (P10632 whole entry): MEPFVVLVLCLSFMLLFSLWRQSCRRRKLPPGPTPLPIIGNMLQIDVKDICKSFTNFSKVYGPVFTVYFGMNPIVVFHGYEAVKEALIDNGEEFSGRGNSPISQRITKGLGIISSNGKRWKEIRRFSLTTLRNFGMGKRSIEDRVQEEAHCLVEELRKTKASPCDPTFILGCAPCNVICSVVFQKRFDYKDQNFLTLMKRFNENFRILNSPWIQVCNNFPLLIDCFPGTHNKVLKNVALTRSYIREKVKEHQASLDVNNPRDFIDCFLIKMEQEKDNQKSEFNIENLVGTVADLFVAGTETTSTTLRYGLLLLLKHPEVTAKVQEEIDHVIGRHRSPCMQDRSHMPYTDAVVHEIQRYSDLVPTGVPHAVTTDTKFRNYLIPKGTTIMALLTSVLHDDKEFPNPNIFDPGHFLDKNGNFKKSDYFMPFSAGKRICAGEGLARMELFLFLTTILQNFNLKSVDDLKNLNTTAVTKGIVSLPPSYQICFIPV

For `O=C(O)C[C@H]1CCc2c1[nH]c1ccc(OCc3ccc(C4CCCC4)c(C(F)(F)F)c3)cc21` [Compound 1, (R)-2-(7-(4-cyclopentyl-3-(trifluoromethyl)benzyloxy)-1,2,3,4-tetrahydrocyclopenta[b]indol-3-yl)acetic acid], the “Compound 1 loss with rCYP2C8” value at rCYP2C8 is recorded as “up to 75%”. The “Reduction of uptake rate of p-aminohippurate into OAT1-expressing cells (inhibition)” value at OAT1 (1 and 10 μM) was “less than 50%”. For the same molecule, the IC50 on OAT1 (HEK293 cells, [3H]-p-aminohippurate (1 μM), 1 and 10 μM tested) was greater than 10 µM; against MATE1 (HEK293 cells, [14C]-metformin (10 μM), 1 and 10 μM tested), greater than 10 µM. In addition, on MATE1 (up to 10 μM), the “Inhibition of MATE1” value is “less than 50%”. Moreover, the Bradycardia result in series [1] is “no or substantially no bradycardia”.

The values are drawn from patent US20210228545A1, “METHODS OF TREATING CONDITIONS RELATED TO THE S1P1 RECEPTOR” (Arena Pharmaceuticals, Inc., priority 2018, published 2021).
